Laboratory results as given in patent US12139471B2, “NLRP3 inflammasome inhibitors” (Novartis AG, priority 2019, dated 2024).
Where two headings read alike, the source gives them in different places.

Biological target: T1, NLRP3 inflammasome (Homo sapiens, UniProt Q96P20)
T1 construct: host or cells: THP-1 cells, PMA-differentiated
Assay: IL-1β secretion assay (nigericin-activated, PMA-differentiated THP-1 cells, HTRF)
Format: cell-based
Details: compound 1 hour, then 15 μM nigericin, 3 hours, IL-1β by HTRF
Procedure: 10 μL supernatant was removed, and IL-1β levels were monitored using an HTRF assay (CisBio, #62IL1PEC) according to manufacturers' instructions. Viability and pyroptosis was monitored with the addition of PrestoBlue cell viability reagent (Life Technologies, #A13261) directly to the cell culture plate.
IC50 values were calculated from the plot of percentage of inhibition versus the inhibitor concentration by a logistics fit according to: y=A2+(A1−A2)/(1+(x/IC50)^p) where y is the %-inhibition at the inhibitor concentration, x. A1 is the lowest inhibition value, i.e. 0%, and A2 the maximum inhibition value, i.e. 100%. The exponent, p, is the Hill coefficient. The curve fitting was conducted with an internally developed software suite.
NLRP3-dependent IL-1β secretion was stimulated in PMA-differentiated THP-1 cells by the addition of nigericin, and cytokines were measured in the […] after 3 hours. As discussed above, activation of the NLRP3 inflammasome requires both an NF-kB-dependent priming step and the addition of a NLRP3 activator.

[1] = PMA-differentiated THP-1 cells, read-out: IL-1β IC50
[2] = IL-1β IC50, PMA-differentiated THP-1 cells

T1 sequence (Q96P20 whole entry): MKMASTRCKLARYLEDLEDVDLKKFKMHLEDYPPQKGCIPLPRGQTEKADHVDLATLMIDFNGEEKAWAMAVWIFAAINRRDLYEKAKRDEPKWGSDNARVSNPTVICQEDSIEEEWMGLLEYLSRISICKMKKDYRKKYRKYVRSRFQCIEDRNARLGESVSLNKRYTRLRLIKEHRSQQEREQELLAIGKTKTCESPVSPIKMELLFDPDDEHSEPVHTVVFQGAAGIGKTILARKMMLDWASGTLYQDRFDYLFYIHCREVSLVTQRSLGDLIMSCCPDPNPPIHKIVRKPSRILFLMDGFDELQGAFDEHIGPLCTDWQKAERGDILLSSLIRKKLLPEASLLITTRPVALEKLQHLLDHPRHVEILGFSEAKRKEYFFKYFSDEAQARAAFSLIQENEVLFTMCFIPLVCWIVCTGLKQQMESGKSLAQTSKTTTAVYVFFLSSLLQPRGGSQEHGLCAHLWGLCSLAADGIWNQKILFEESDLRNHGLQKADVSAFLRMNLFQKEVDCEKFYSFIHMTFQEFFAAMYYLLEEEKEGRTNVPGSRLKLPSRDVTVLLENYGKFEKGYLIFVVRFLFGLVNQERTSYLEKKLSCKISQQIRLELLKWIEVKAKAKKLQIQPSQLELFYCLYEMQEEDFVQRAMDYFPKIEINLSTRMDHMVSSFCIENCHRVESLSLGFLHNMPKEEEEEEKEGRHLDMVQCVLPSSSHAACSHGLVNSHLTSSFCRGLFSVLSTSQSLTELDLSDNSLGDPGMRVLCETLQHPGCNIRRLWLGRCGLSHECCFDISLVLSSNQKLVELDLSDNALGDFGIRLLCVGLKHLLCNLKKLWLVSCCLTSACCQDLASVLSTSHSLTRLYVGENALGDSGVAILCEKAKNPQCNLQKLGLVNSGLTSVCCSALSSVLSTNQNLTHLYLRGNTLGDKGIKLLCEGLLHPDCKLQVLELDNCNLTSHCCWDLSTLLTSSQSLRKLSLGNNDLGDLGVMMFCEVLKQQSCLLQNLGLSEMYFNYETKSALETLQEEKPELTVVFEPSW

## OCCNc1ccc(-c2c(O)cc(C(F)(F)F)cc2Cl)nn1 [Ex 37, 3-Chloro-2-(6-((2-hydroxyethyl)amino)pyridazin-3-yl)-5-(trifluoromethyl)phenol]
[1]
  IC50: 381 nM

## Cc1cc(-c2c(C)cc(C(F)(F)F)cc2O)nnc1N[C@@H]1CCCN(C)C1=O [Ex 102, (R)-3-((6-(2-Hydroxy-6-methyl-4-(trifluoromethyl)phenyl)-4-methylpyridazin-3-yl)amino)-1-methylpiperidin-2-one]
[1]
  IC50: 49 nM

## Cc1cc(C(F)(F)F)cc(O)c1-c1ccc(OCC(C)(C)O)nn1 [Ex 19, 2-(6-(2-Hydroxy-2-methylpropoxy)pyridazin-3-yl)-3-methyl-5-(trifluoromethyl)phenol]
[1]
  IC50: 93.6 nM

## Cc1cc(C(F)(F)F)cc(O)c1-c1ccc(N[C@@H]2CCC[C@H]2O)nn1 (relative stereo) [Ex 24, (trans)-2-(6-((2-Hydroxycyclopentyl)amino)pyridazin-3-yl)-3-methyl-5-(trifluoromethyl)phenol]
[1]
  IC50: 120 nM

## Cc1cc(C(F)(F)F)cc(O)c1-c1ccc(NCC(C)(C)N)nn1 [Ex 29, 2-(6-((2-Amino-2-methylpropyl)amino)pyridazin-3-yl)-3-methyl-5-(trifluoromethyl)phenol]
[1]
  IC50: 169 nM

## Cc1cc(C(F)(F)F)cc(O)c1-c1ccc(NC[C@@H]2CCCCN2)nn1 [Ex 21, (S)-3-Methyl-2-(6-((piperidin-2-ylmethyl)amino)pyridazin-3-yl)-5-(trifluoromethyl)phenol]
[1]
  IC50: 48.4 nM

## Cc1cc(-c2c(C)cc(C(F)(F)F)cc2O)nnc1N[C@H]1C[C@@](C)(O)C1 [Ex 54, 2-(6-(((cis)-3-Hydroxy-3-methylcyclobutyl)amino)-5-methylpyridazin-3-yl)-3-methyl-5-(trifluoromethyl)phenol]
[1]
  IC50: 11.8 nM

## Cc1cc(C(F)(F)F)cc(O)c1-c1ccc(NC(C)(C)CO)nn1 [Ex 79, 2-(6-((1-Hydroxy-2-methylpropan-2-yl)amino)pyridazin-3-yl)-3-methyl-5-(trifluoromethyl)phenol]
[1]
  IC50: 370 nM

## Cc1cc(C(F)(F)F)cc(O)c1-c1ccc(NC[C@@H]2CCCCN2CCO)nn1 (single isomer, unassigned) [Ex 84b]
[1]
  IC50: 53.3 nM

## CC(C)(O)CNc1ccc(-c2c(O)cc(C(F)(F)F)cc2Cl)nn1 [Ex 30, 3-Chloro-2-(6-((2-hydroxy-2-methylpropyl)amino)pyridazin-3-yl)-5-(trifluoromethyl)phenol]
[1]
  IC50: 214 nM

## Cc1cc(C(F)(F)F)cc(O)c1-c1cc(C(F)(F)F)c(NCCO)nn1 [Ex 26, 2-(6-((2-Hydroxyethyl)amino)-5-(trifluoromethyl)pyridazin-3-yl)-3-methyl-5-(trifluoromethyl)phenol]
[1]
  IC50: 165 nM

## Cc1cc(N[C@H]2C[C@@](C)(O)C2)nnc1-c1ccc(C(F)(F)F)cc1O [Ex 55, 2-(6-(((cis)-3-Hydroxy-3-methylcyclobutyl)amino)-4-methylpyridazin-3-yl)-5-(trifluoromethyl)phenol]
[1]
  IC50: 45.8 nM

## Cc1cc(C(F)(F)F)cc(O)c1-c1ccc(N[C@@H]2CCC[C@H](O)C2)nn1 [Ex 3, 2-(6-(((1R,3S)-3-Hydroxycyclohexyl)amino)pyridazin-3-yl)-3-methyl-5-(trifluoromethyl)phenol]
[1]
  IC50: 25.5 nM

## Cc1cc(C(F)(F)F)cc(O)c1-c1ccc(NC[C@H]2CC(F)(F)CN2)nn1 [Ex 23, (R)-2-(6-(((4,4-Difluoropyrrolidin-2-yl)methyl)amino)pyridazin-3-yl)-3-methyl-5-(trifluoromethyl)phenol]
[1]
  IC50: 93.4 nM

## Cc1cc(C(F)(F)F)cc(O)c1-c1ccc(NC[C@@](C)(O)CO)nn1 (single isomer, unassigned) [Ex 88b]
[1]
  IC50: 60.5 nM

## Cc1cc(C(F)(F)F)cc(O)c1-c1ccc(Nc2cncnc2)nn1 [Ex 43, 3-Methyl-2-(6-(pyrimidin-5-ylamino)pyridazin-3-yl)-5-(trifluoromethyl)phenol]
[1]
  IC50: 281 nM

## Cc1cc(C(F)(F)F)cc(O)c1-c1ccc(N[C@@H]2CCCN3CCC[C@H]23)nn1 (single isomer, unassigned) [Ex 83a]
[1]
  IC50: 0.8 nM

## Cc1cc(C(F)(F)F)cc(O)c1-c1ccc(NCC(C)(C)N(C)C)nn1 [Ex 16, 2-(6-((2-(Dimethylamino)-2-methylpropyl)amino)pyridazin-3-yl)-3-methyl-5-(trifluoromethyl)phenol]
[1]
  IC50: 36.3 nM

## Cc1cc(C(F)(F)F)cc(O)c1-c1ccc(NCc2ccccn2)nn1 [Ex 28, 3-Methyl-2-(6-((pyridin-2-ylmethyl)amino)pyridazin-3-yl)-5-(trifluoromethyl)phenol]
[1]
  IC50: 288 nM

## Cc1cc(C(F)(F)F)cc(O)c1-c1ccc(NC2CCC3CCC2N3C)nn1 (single isomer, unassigned) [Ex 85b]
[2]
  IC50: 1.3 nM

## C[C@]1(O)C[C@@H](Nc2cc(C(F)(F)F)c(-c3ccc(Cl)cc3O)nn2)C1 [Ex 69, 5-Chloro-2-(6-(((cis)-3-hydroxy-3-methylcyclobutyl)amino)-4-(trifluoromethyl)pyridazin-3-yl)phenol]
[1]
  IC50: 431 nM

## Cc1cc(C(F)(F)F)cc(O)c1-c1ccc(NC2CCC3CCC2N3C)nn1 (single isomer, unassigned) [Ex 85a]
[1]
  IC50: 148 nM

## Cc1cc(NCC(C)(C)O)nnc1-c1c(C)cc(C(F)(F)F)cc1O [Ex 73, 2-(6-((2-Hydroxy-2-methylpropyl)amino)-4-methylpyridazin-3-yl)-3-methyl-5-(trifluoromethyl)phenol]
[1]
  IC50: 154 nM

## Cc1cc(C(F)(F)F)cc(O)c1-c1ccc(NC[C@@H]2C[C@H](F)CN2)nn1 [Ex 75, 2-(6-((((2S,4S)-4-Fluoropyrrolidin-2-yl)methyl)amino)pyridazin-3-yl)-3-methyl-5-(trifluoromethyl)phenol]
[1]
  IC50: 18.3 nM

## Cc1cc(C(F)(F)F)cc(O)c1-c1ccc(N[C@H]2C[C@](O)(C(F)(F)F)C2)nn1 [Ex 67, 2-(6-(((cis)-3-Hydroxy-3-(trifluoromethyl)cyclobutyl)amino)pyridazin-3-yl)-3-methyl-5-(trifluoromethyl)phenol]
[1]
  IC50: 40.1 nM

## Cc1ncccc1CNc1ccc(-c2c(O)cc(Cl)cc2C(F)(F)F)nn1 [Ex 35, 5-Chloro-2-(6-(((2-methylpyridin-3-yl)methyl)amino)pyridazin-3-yl)-3-(trifluoromethyl)phenol]
[1]
  IC50: 243 nM

## Cc1cc(N[C@H]2C[C@@](C)(O)C2)nnc1-c1ccc(Cl)cc1O [Ex 68, 5-Chloro-2-(6-(((cis)-3-hydroxy-3-methylcyclobutyl)amino)-4-methylpyridazin-3-yl)phenol]
[1]
  IC50: 89.3 nM

## Cc1cc(C(F)(F)F)cc(O)c1-c1ccc(NC[C@H]2CCCCN2CCO)nn1 (single isomer, unassigned) [Ex 84a]
[1]
  IC50: 42.5 nM

## Cc1cc(C(F)(F)F)cc(O)c1-c1ccc(NC[C@H]2CCCCN2)nn1 [Ex 20, (R)-3-Methyl-2-(6-((piperidin-2-ylmethyl)amino)pyridazin-3-yl)-5-(trifluoromethyl)phenol]
[1]
  IC50: 82.3 nM

## Cc1cc(C(F)(F)F)cc(O)c1-c1ccc(NC2CCC3CCC2N3CCO)nn1 (single isomer, unassigned) [Ex 86b]
[2]
  IC50: 1.8 nM

## Cc1cc(C(F)(F)F)cc(O)c1-c1ccc(N[C@@H]2CCC[C@@H](O)C2)nn1 [Ex 58, 2-(6-(((1R,3R)-3-Hydroxycyclohexyl)amino)pyridazin-3-yl)-3-methyl-5-(trifluoromethyl)phenol]
[1]
  IC50: 58.4 nM

## Cc1cc(C(F)(F)F)cc(O)c1-c1ccc(NC[C@@H](O)C(C)C)nn1 (single isomer, unassigned) [Ex 90a]
[1]
  IC50: 64.2 nM
